Assay results as given in patent US10590123B2, “Pesticidally active amide heterocyclic derivatives with sulphur containing substituents” (SYNGENTA PARTICIPATIONS AG, priority 2014, dated 2020).

Tests used:
Assay type in all cases: in vivo
[1] = system: Spodoptera littoralis (Egyptian Cotton Leaf Worm); test: Example B1: Activity against Spodoptera littoralis, sprayed cotton leaf discs; details: foliar, 72 h, application rate 200 ppm, L1 larvae, 3 days after infestation, read-out: control in at least one of the three categories (mortality, anti-feedancy or growth inhibition)
Protocol: Example B1: Activity Against Spodoptera littoralis (Egyptian Cotton Leaf Worm)
Cotton leaf discs were placed on agar in 24-well microtiter plates and sprayed with aqueous test solutions prepared from 10′000 ppm DMSO stock solutions. After drying the leaf discs were infested with five L1 larvae. The samples were assessed for mortality, anti-feedant effect, and growth inhibition in comparison to untreated samples 3 days after infestation. Control of Spodoptera littoralis by a test sample is when at least one of mortality, anti-feedant effect, and growth inhibition is higher than the untreated sample.

[2] = system: Plutella xylostella (Diamond Back Moth); test: Example B3: Activity against Plutella xylostella, artificial diet; details: 120 h, application rate 200 ppm, L2 larvae, 5 days after infestation, read-out: effect in at least one of the two categories (mortality or growth inhibition)
Protocol: Example B3: Activity Against Plutella xylostella (Diamond Back Moth)
(§1) 24-well microtiter plates with artificial diet were treated with aqueous test solutions prepared from 10′000 ppm DMSO stock solutions by pipetting. After drying, the plates were infested with L2 larvae (10 to 15 per well). The samples were assessed for mortality and growth inhibition in comparison to untreated samples 5 days after infestation.

[3] = system: Diabrotica Balteata (Corn Root Worm); test: Example B4: Activity against Diabrotica balteata, sprayed maize sprouts; details: 96 h, application rate 200 ppm, L2 larvae, 4 days after infestation, read-out: effect in at least one of the two categories (mortality or growth inhibition)
Protocol: Example B4: Activity Against Diabrotica Balteata (Corn Root Worm)
as §1, with “Maize sprouts, placed on an agar layer in 24-well” for “24-well”, “plates” for “plates with artificial diet”, “spraying.” for “pipetting.”, “(6” for “(10”, “10” for “15”, “4” for “5”

[4] = system: Euschistus heros (Neotropical Brown Stink Bug); test: Example B7: Activity against Euschistus heros, sprayed soybean leaf; details: 120 h, application rate 200 ppm, N-2 nymphs, 5 days after infestation
Protocol: Example B7: Activity Against Euschistus heros (Neotropical Brown Stink Bug)
Soybean leaf on agar in 24-well microtiter plates were sprayed with aqueous test solutions prepared from 10′000 ppm DMSO stock solutions. After drying the leaf were infested with N-2 nymphs. The samples were assessed for mortality 5 days after infestation.

[5] = system: Myzus persicae (Green Peach Aphid); test: Example B8: Activity against Myzus persicae, sprayed sunflower leaf discs; details: foliar, 144 h, application rate 200 ppm, aphid population of mixed ages, 6 days after infestation
Protocol: Example B8: Activity Against Myzus persicae (Green Peach Aphid)
Sunflower leaf discs were placed on agar in a 24-well microtiter plate and sprayed with aqueous test solutions prepared from 10′000 ppm DMSO stock solutions. After drying, the leaf discs were infested with an aphid population of mixed ages. The samples were assessed for mortality 6 days after infestation.

CCS(=O)(=O)c1cc(-c2cc(Cl)cc(Cl)c2)cnc1C(=O)N(C)c1nnc(C(F)(F)F)s1 [Compound P24]
≥ 80%: percent control (mortality, anti-feedant effect or growth inhibition) at 200 ppm [1] | percent effect (mortality or growth inhibition) at 200 ppm [2] | percent effect (mortality or growth inhibition) at 200 ppm [3]

CCS(=O)(=O)c1cc(-c2ccc(OC(F)(F)F)cc2)cnc1C(=O)N(C)c1nnc(C(F)(F)F)s1 [Compound P22]
≥ 80%: percent control (mortality, anti-feedant effect or growth inhibition) at 200 ppm [1] | percent effect (mortality or growth inhibition) at 200 ppm [2] | mortality at 200 ppm [4] | mortality at 200 ppm [5] | percent effect (mortality or growth inhibition) at 200 ppm [3]

CCS(=O)(=O)c1cc(-c2ccnc(C(F)(F)F)n2)cnc1C(=O)N(C)c1nnc(C(F)(F)F)s1 [Compound P60]
≥ 80%: percent control (mortality, anti-feedant effect or growth inhibition) at 200 ppm [1] | percent effect (mortality or growth inhibition) at 200 ppm [2] | mortality at 200 ppm [4] | mortality at 200 ppm [5] | percent effect (mortality or growth inhibition) at 200 ppm [3]

CCS(=O)(=O)c1cc(-c2ccc(Cl)cc2)c[n+]([O-])c1C(=O)N(C)c1nnc(C(F)(F)F)s1 [Compound P19, 5-(4-chlorophenyl)-3-ethylsulfonyl-N-methyl-1-oxido-N-[5-(trifluoromethyl)-1,3,4-thiadiazol-2-yl]pyridin-1-ium-2-carboxamide]
≥ 80%: percent control (mortality, anti-feedant effect or growth inhibition) at 200 ppm [1] | percent effect (mortality or growth inhibition) at 200 ppm [2] | mortality at 200 ppm [4] | percent effect (mortality or growth inhibition) at 200 ppm [3]

CCS(=O)(=O)c1cc(-n2ccc(C(F)(F)F)n2)cnc1C(=O)N(C)c1nnc(C(F)(F)C(F)(F)F)s1 [Compound P15]
≥ 80%: percent control (mortality, anti-feedant effect or growth inhibition) at 200 ppm [1] | percent effect (mortality or growth inhibition) at 200 ppm [2] | mortality at 200 ppm [4] | percent effect (mortality or growth inhibition) at 200 ppm [3]

CCS(=O)(=O)c1cc(-c2cncc(C(F)(F)F)c2)cnc1C(=O)N(C)c1nnc(C(F)(F)F)s1 [Compound P55]
≥ 80%: percent control (mortality, anti-feedant effect or growth inhibition) at 200 ppm [1] | percent effect (mortality or growth inhibition) at 200 ppm [3]

CCS(=O)(=O)c1cc(-c2cccc(C#N)n2)cnc1C(=O)N(C)c1nnc(C(F)(F)F)s1 [Compound P50]
≥ 80%: percent control (mortality, anti-feedant effect or growth inhibition) at 200 ppm [1] | percent effect (mortality or growth inhibition) at 200 ppm [2] | percent effect (mortality or growth inhibition) at 200 ppm [3]

CCS(=O)(=O)c1cc(-c2ccnc(Cl)c2)cnc1C(=O)N(C)c1nnc(C(F)(F)F)s1 [Compound P57]
≥ 80%: percent control (mortality, anti-feedant effect or growth inhibition) at 200 ppm [1] | percent effect (mortality or growth inhibition) at 200 ppm [2] | mortality at 200 ppm [4] | mortality at 200 ppm [5] | percent effect (mortality or growth inhibition) at 200 ppm [3]

CCS(=O)(=O)c1cc(-c2ccc(C(F)(F)F)cc2)cnc1C(=O)Nc1nnc(C(F)(F)C(F)(F)F)s1 [Compound P10]
≥ 80%: percent effect (mortality or growth inhibition) at 200 ppm [3]

CCS(=O)(=O)c1cc(-c2ncc(C#N)cn2)cnc1C(=O)N(C)c1nnc(C(F)(F)F)s1 [Compound P63]
≥ 80%: percent control (mortality, anti-feedant effect or growth inhibition) at 200 ppm [1] | percent effect (mortality or growth inhibition) at 200 ppm [2] | mortality at 200 ppm [4] | percent effect (mortality or growth inhibition) at 200 ppm [3]

CCS(=O)(=O)c1cc(-c2cc(Cl)c(F)c(Cl)c2)cnc1C(=O)N(C)c1nnc(C(F)(F)F)s1 [Compound P27]
≥ 80%: percent control (mortality, anti-feedant effect or growth inhibition) at 200 ppm [1] | percent effect (mortality or growth inhibition) at 200 ppm [2] | percent effect (mortality or growth inhibition) at 200 ppm [3]

CCSc1cc(-n2ccc(C(F)(F)F)n2)cnc1C(=O)N(C)c1nnc(C(F)(F)F)s1 [Compound P16, 3-ethylsulfanyl-N-methyl-5-[3-(trifluoromethyl)pyrazol-1-yl]-N-[5-(trifluoromethyl)-1,3,4-thiadiazol-2-yl]pyridine-2-carboxamide]
≥ 80%: percent control (mortality, anti-feedant effect or growth inhibition) at 200 ppm [1] | percent effect (mortality or growth inhibition) at 200 ppm [3]

CCS(=O)(=O)c1cc(-n2ccc(C(F)(F)F)n2)cnc1C(=O)N(C)c1nnc(C(F)(F)F)s1 [Compound P17, 3-ethylsulfonyl-N-methyl-5-[3-(trifluoromethyl)pyrazol-1-yl]-N-[5-(trifluoromethyl)-1,3,4-thiadiazol-2-yl]pyridine-2-carboxamide]
≥ 80%: percent control (mortality, anti-feedant effect or growth inhibition) at 200 ppm [1] | percent effect (mortality or growth inhibition) at 200 ppm [2] | mortality at 200 ppm [4] | percent effect (mortality or growth inhibition) at 200 ppm [3]

CCS(=O)(=O)c1cc(-c2ccc(Cl)c(Cl)n2)cnc1C(=O)N(C)c1nnc(C(F)(F)F)s1 [Compound P46]
≥ 80%: percent control (mortality, anti-feedant effect or growth inhibition) at 200 ppm [1] | percent effect (mortality or growth inhibition) at 200 ppm [2] | percent effect (mortality or growth inhibition) at 200 ppm [3]

CCS(=O)(=O)c1cc(-c2cccc(C(F)(F)F)n2)cnc1C(=O)N(C)c1nnc(C(F)(F)F)s1 [Compound P45]
≥ 80%: percent control (mortality, anti-feedant effect or growth inhibition) at 200 ppm [1] | percent effect (mortality or growth inhibition) at 200 ppm [2] | mortality at 200 ppm [5] | percent effect (mortality or growth inhibition) at 200 ppm [3]

CCS(=O)(=O)c1cc(-c2ccc(Cl)cc2Cl)cnc1C(=O)N(C)c1nnc(C(F)(F)F)s1 [Compound P34]
≥ 80%: percent control (mortality, anti-feedant effect or growth inhibition) at 200 ppm [1] | percent effect (mortality or growth inhibition) at 200 ppm [2] | mortality at 200 ppm [4] | percent effect (mortality or growth inhibition) at 200 ppm [3]

CCS(=O)(=O)c1cc(-c2cccc(C#N)c2)cnc1C(=O)N(C)c1nnc(C(F)(F)F)s1 [Compound P23]
≥ 80%: percent control (mortality, anti-feedant effect or growth inhibition) at 200 ppm [1] | percent effect (mortality or growth inhibition) at 200 ppm [2] | percent effect (mortality or growth inhibition) at 200 ppm [3]

CCS(=O)(=O)c1ccc(-c2cnc(C(=O)N(C)c3nnc(C(F)(F)F)s3)c(S(=O)(=O)CC)c2)cc1 [Compound P3]
≥ 80%: percent control (mortality, anti-feedant effect or growth inhibition) at 200 ppm [1] | percent effect (mortality or growth inhibition) at 200 ppm [2] | percent effect (mortality or growth inhibition) at 200 ppm [3]

CCS(=O)(=O)c1cc(-c2ccc(C(F)(F)F)cn2)cnc1C(=O)N(C)c1nnc(C(F)(F)F)s1 [Compound P53]
≥ 80%: percent control (mortality, anti-feedant effect or growth inhibition) at 200 ppm [1] | percent effect (mortality or growth inhibition) at 200 ppm [2] | percent effect (mortality or growth inhibition) at 200 ppm [3]

CCSc1cc(-c2ccc(Cl)cc2)cnc1C(=O)N(C)c1nnc(C(F)(F)F)s1 [Compound P1, 5-(4-chlorophenyl)-3-ethylsulfanyl-N-methyl-N-[5-(trifluoromethyl)-1,3,4-thiadiazol-2-yl]pyridine-2-carboxamide]
≥ 80%: percent control (mortality, anti-feedant effect or growth inhibition) at 200 ppm [1] | percent effect (mortality or growth inhibition) at 200 ppm [2] | mortality at 200 ppm [4] | percent effect (mortality or growth inhibition) at 200 ppm [3]

CCS(=O)(=O)c1cc(-c2ccc(-c3ccc(Cl)cc3)cc2)cnc1C(=O)N(C)c1nnc(C(F)(F)F)s1 [Compound P9]
≥ 80%: percent control (mortality, anti-feedant effect or growth inhibition) at 200 ppm [1] | percent effect (mortality or growth inhibition) at 200 ppm [2] | percent effect (mortality or growth inhibition) at 200 ppm [3]

CCS(=O)(=O)c1cc(C2(C#N)CC2)cnc1C(=O)N(C)c1nnc(C(F)(F)F)s1 [Compound P18]
≥ 80%: percent control (mortality, anti-feedant effect or growth inhibition) at 200 ppm [1] | percent effect (mortality or growth inhibition) at 200 ppm [2] | mortality at 200 ppm [5] | percent effect (mortality or growth inhibition) at 200 ppm [3]

CCS(=O)(=O)c1cc(-c2ccc(Cl)cc2)cnc1C(=O)Nc1nnc(C(F)(F)C(F)(F)F)s1 [Compound P13]
≥ 80%: percent effect (mortality or growth inhibition) at 200 ppm [2] | percent effect (mortality or growth inhibition) at 200 ppm [3]

CCS(=O)(=O)c1cc(-n2ccc(C(F)(F)F)n2)cnc1C(=O)Nc1nnc(C(F)(F)C(F)(F)F)s1 [Compound P7]
≥ 80%: percent effect (mortality or growth inhibition) at 200 ppm [3]

CCS(=O)(=O)c1cc(-c2ccc(C(F)(F)F)cc2)cnc1C(=O)N(C)c1nnc(C(F)(F)C(F)(F)F)s1 [Compound P11]
≥ 80%: percent control (mortality, anti-feedant effect or growth inhibition) at 200 ppm [1] | percent effect (mortality or growth inhibition) at 200 ppm [2] | mortality at 200 ppm [4] | percent effect (mortality or growth inhibition) at 200 ppm [3]

CCS(=O)(=O)c1ccc(-c2ccc(C(F)(F)F)cc2)nc1C(=O)N(C)c1nnc(C(F)(F)F)s1 [Compound P21, 3-ethylsulfonyl-N-methyl-6-[4-(trifluoromethyl)phenyl]-N-[5-(trifluoromethyl)-1,3,4-thiadiazol-2-yl]pyridine-2-carboxamide]
≥ 80%: percent control (mortality, anti-feedant effect or growth inhibition) at 200 ppm [1] | percent effect (mortality or growth inhibition) at 200 ppm [2] | percent effect (mortality or growth inhibition) at 200 ppm [3]
